Reference: PubChem BioAssay (NCI)
Values joined by “and” are separate entries in the source; they are usually repeats but may differ in a detail not shown here. Equal values may be shown once.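 Each compound was tested at five concentrations against cells in 96-well plates for 48 hours. The concentration for 50% growth inhibition is given as GI50. TGI is the concentration that stops growth completely.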 Where a SMILES comes first, the peptide text is derived from it. [ ]: non-standard residue; d: D form. The star is where a group is joined. dTle = CC(C)(C)[C@@H](N)C(=O)O; 4Abz = Nc1ccc(C(=O)O)cc1; NHOH = ON*

Columns and labels:
Assay in all cases: NCI tumour cell line growth inhibition, 48 h
A549 NSCLC = test system: A549 NSCLC
HOP-62 NSCLC = test system: HOP-62 NSCLC
HOP-92 NSCLC = test system: HOP-92 NSCLC
IGROV1 ovarian = test system: IGROV1 ovarian
K-562 leukemia = test system: K-562 leukemia
KM12 colon = test system: KM12 colon
LOX IMVI melanoma = test system: LOX IMVI melanoma
SF-295 CNS = test system: SF-295 CNS
HL-60(TB) leukemia = test system: HL-60(TB) leukemia
SR leukemia = test system: SR leukemia

O=C1c2ccccc2-c2c1c1c(O)cccc1n2Cc1ccccn1
GI50 (A549 NSCLC): 45.3 µM
TGI (A549 NSCLC): > 100 µM
GI50 (HOP-62 NSCLC): 84.9 µM
TGI (HOP-62 NSCLC): > 100 µM
GI50 (HOP-92 NSCLC): 17.7 µM
TGI (HOP-92 NSCLC): > 100 µM
GI50 (IGROV1 ovarian): 88.6 µM
TGI (IGROV1 ovarian): > 100 µM
GI50 (K-562 leukemia): 18.3 µM
TGI (K-562 leukemia): 79 µM
GI50 (KM12 colon): > 100 µM
TGI (KM12 colon): > 100 µM
GI50 (LOX IMVI melanoma): 35.5 µM
TGI (LOX IMVI melanoma): > 100 µM
GI50 (SF-295 CNS): 23.6 µM
TGI (SF-295 CNS): > 100 µM

CN(C)CCNc1c2ccccc2nc2oc3ccccc3c12
GI50 (A549 NSCLC): 4.75 µM
TGI (A549 NSCLC): 36 µM
GI50 (HL-60(TB) leukemia): 3.53 µM
TGI (HL-60(TB) leukemia): 25.2 µM
GI50 (HOP-62 NSCLC): 7.97 µM
TGI (HOP-62 NSCLC): 42.6 µM
GI50 (IGROV1 ovarian): 4.82 µM
TGI (IGROV1 ovarian): 26 µM
GI50 (K-562 leukemia): 5.22 µM
TGI (K-562 leukemia): > 100 µM
GI50 (KM12 colon): 6.84 µM
TGI (KM12 colon): 33.9 µM
GI50 (LOX IMVI melanoma): 4.35 µM
TGI (LOX IMVI melanoma): 14.9 µM
GI50 (SF-295 CNS): 5.99 µM
TGI (SF-295 CNS): 24.6 µM

O=C(/C=C/C12c3ccccc3C(c3ccccc31)C1C(=O)NC(=O)C12)c1ccc(F)cc1 (stereo not given)
GI50 (A549 NSCLC): 2.39 µM
TGI (A549 NSCLC): 7.01 µM
GI50 (HL-60(TB) leukemia): 0.0217 µM
TGI (HL-60(TB) leukemia): 2.1 µM
GI50 (HOP-62 NSCLC): 2.63 µM
TGI (HOP-62 NSCLC): 7.4 µM
GI50 (HOP-92 NSCLC): 1.59 µM
TGI (HOP-92 NSCLC): 3.55 µM
GI50 (IGROV1 ovarian): 2.09 µM
TGI (IGROV1 ovarian): 5.9 µM
GI50 (K-562 leukemia): 1.42 µM
TGI (K-562 leukemia): 4.75 µM
GI50 (KM12 colon): 1.78 µM
TGI (KM12 colon): 3.43 µM
GI50 (LOX IMVI melanoma): 1.67 µM
TGI (LOX IMVI melanoma): 3.28 µM
GI50 (SF-295 CNS): 2.01 µM
TGI (SF-295 CNS): 4.24 µM

C[C@@H](NC(=O)[C@H](NC(=O)[C@@H]1CCCN1C(=O)CNC(=O)c1ccc(N)cc1)C(C)(C)C)C(=O)NO (H-[4Abz]GP[dTle][dA]-{NHOH})
GI50 (A549 NSCLC): > 100 µM
TGI (A549 NSCLC): > 100 µM
GI50 (HOP-62 NSCLC): > 100 µM
TGI (HOP-62 NSCLC): > 100 µM
GI50 (HOP-92 NSCLC): 5.76 µM
TGI (HOP-92 NSCLC): > 100 µM
GI50 (IGROV1 ovarian): > 100 µM
TGI (IGROV1 ovarian): > 100 µM
GI50 (K-562 leukemia): > 100 µM
TGI (K-562 leukemia): > 100 µM
GI50 (KM12 colon): > 100 µM
TGI (KM12 colon): > 100 µM
GI50 (LOX IMVI melanoma): > 100 µM
TGI (LOX IMVI melanoma): > 100 µM
GI50 (SF-295 CNS): > 100 µM
TGI (SF-295 CNS): > 100 µM

Cc1cccc(C(C)(C)C)c1NC(=O)CCc1nc(=S)[nH][nH]1
TGI (A549 NSCLC): > 100 µM
TGI (HL-60(TB) leukemia): > 100 µM
TGI (HOP-62 NSCLC): > 100 µM
TGI (HOP-92 NSCLC): > 100 µM
TGI (IGROV1 ovarian): > 100 µM
TGI (K-562 leukemia): > 100 µM
TGI (KM12 colon): > 100 µM
TGI (LOX IMVI melanoma): > 100 µM
TGI (SF-295 CNS): > 100 µM

O=C(O)c1c(=O)cccc2ssc12
GI50 (A549 NSCLC): 1.86 µM
TGI (A549 NSCLC): 3.77 µM
GI50 (HL-60(TB) leukemia): 1.81 µM
TGI (HL-60(TB) leukemia): 4.43 µM
GI50 (HOP-62 NSCLC): 1.81 µM
TGI (HOP-62 NSCLC): 3.44 µM
GI50 (HOP-92 NSCLC): 1.86 µM
TGI (HOP-92 NSCLC): 3.79 µM
GI50 (IGROV1 ovarian): 2.39 µM
TGI (IGROV1 ovarian): 5.91 µM
GI50 (K-562 leukemia): 2.04 µM
TGI (K-562 leukemia): 5.51 µM
GI50 (KM12 colon): 1.9 µM
TGI (KM12 colon): 3.72 µM
GI50 (LOX IMVI melanoma): 1.78 µM
TGI (LOX IMVI melanoma): 3.42 µM
GI50 (SF-295 CNS): 1.67 µM
TGI (SF-295 CNS): 3.17 µM

CCCCCCCCCNC(=O)/C=C/c1ccc(O)c(O)c1
GI50 (A549 NSCLC): 33.3 µM
TGI (A549 NSCLC): > 100 µM
GI50 (HOP-62 NSCLC): 12.2 µM
TGI (HOP-62 NSCLC): 25.1 µM
GI50 (HOP-92 NSCLC): 2.52 µM
TGI (HOP-92 NSCLC): 17.3 µM
GI50 (IGROV1 ovarian): 1.1 µM
TGI (IGROV1 ovarian): 5.49 µM
GI50 (KM12 colon): 9.02 µM
TGI (KM12 colon): 23.6 µM
GI50 (LOX IMVI melanoma): 11 µM
TGI (LOX IMVI melanoma): 29 µM
GI50 (SF-295 CNS): 18.8 µM
TGI (SF-295 CNS): 40.3 µM
GI50 (SR leukemia): 2.76 µM
TGI (SR leukemia): 21 µM

Oc1c(Cl)cc(Cl)cc1C(c1cc(Cl)cc(Cl)c1O)C(Cl)(Cl)Cl
GI50 (A549 NSCLC): 3.77 µM
TGI (A549 NSCLC): 14.4 µM
GI50 (HL-60(TB) leukemia): 3.25 µM
TGI (HL-60(TB) leukemia): 10.3 µM
GI50 (HOP-62 NSCLC): 3.77 µM
TGI (HOP-62 NSCLC): 15 µM
GI50 (HOP-92 NSCLC): 1.52 µM
TGI (HOP-92 NSCLC): 5.94 µM
GI50 (K-562 leukemia): 1.1 µM
TGI (K-562 leukemia): 20.4 µM
GI50 (KM12 colon): 2.83 µM
TGI (KM12 colon): 10.1 µM
GI50 (LOX IMVI melanoma): 2.08 µM
TGI (LOX IMVI melanoma): 5.57 µM
GI50 (SF-295 CNS): 1.35 µM
TGI (SF-295 CNS): 3.53 µM

Nc1ccc(-c2cccs2)cc1NC(=O)c1ccc(CCCC(=O)Nc2ccc(C3CC3N)cc2)cc1 (stereo not given)
GI50 (HL-60(TB) leukemia): 2.54 µM
TGI (HL-60(TB) leukemia): > 100 µM
GI50 (HOP-92 NSCLC): 11 µM
TGI (HOP-92 NSCLC): > 100 µM
GI50 (IGROV1 ovarian): 4.8 µM
TGI (IGROV1 ovarian): > 100 µM
GI50 (KM12 colon): 3.43 µM
TGI (KM12 colon): > 100 µM

O=C(Nc1cccc(-c2ccc(Cl)c(C(F)(F)F)c2)c1)C1CCN(Cc2cccc3cccnc23)CC1
GI50 (A549 NSCLC): 1.91 µM
TGI (A549 NSCLC): 3.85 µM
GI50 (HOP-62 NSCLC): 1.85 µM
TGI (HOP-62 NSCLC): 3.74 µM
GI50 (HOP-92 NSCLC): 1.36 µM
TGI (HOP-92 NSCLC): 2.83 µM
GI50 (IGROV1 ovarian): 1.55 µM
TGI (IGROV1 ovarian): 2.99 µM
GI50 (K-562 leukemia): 1.1 µM
TGI (K-562 leukemia): 5.99 µM
GI50 (KM12 colon): 1.8 µM
TGI (KM12 colon): 3.43 µM
GI50 (LOX IMVI melanoma): 1.5 µM
TGI (LOX IMVI melanoma): 2.89 µM
GI50 (SF-295 CNS): 1.73 µM
TGI (SF-295 CNS): 3.22 µM
GI50 (SR leukemia): 1.52 µM
TGI (SR leukemia): 4.49 µM

CSc1snc2sc3c(Cl)nnnc3c12
TGI (A549 NSCLC): 33.9 µM
TGI (HOP-62 NSCLC): 31.9 µM
TGI (IGROV1 ovarian): 37.3 µM
TGI (K-562 leukemia): 5.73 µM
TGI (KM12 colon): 30 µM
TGI (LOX IMVI melanoma): 11.2 µM
TGI (SF-295 CNS): 32 µM

CC(C)=CCC/C(C)=C\CCC1(C)OC(=O)C2CC21 (stereo not given)
TGI (HL-60(TB) leukemia): 49.9 µM and 26.6 µM
TGI (HOP-62 NSCLC): > 100 µM
GI50 (IGROV1 ovarian): > 100 µM and 18.2 µM
TGI (IGROV1 ovarian): > 100 µM and 37.2 µM
TGI (K-562 leukemia): 48.4 µM and 40.5 µM
GI50 (KM12 colon): 71.2 µM and 24.9 µM
TGI (KM12 colon): > 100 µM and 62.8 µM
TGI (LOX IMVI melanoma): 81.8 µM and 29 µM
GI50 (SF-295 CNS): > 100 µM and 49.8 µM
TGI (SF-295 CNS): > 100 µM
GI50 (SR leukemia): 24.3 µM and 6.4 µM
TGI (SR leukemia): > 100 µM and 37.2 µM

Cc1cn2c(/C=N/N=C(N)N)c(-c3ccccn3)nc2s1
GI50 (A549 NSCLC): 21.1 µM
TGI (A549 NSCLC): > 70.1 µM
GI50 (HL-60(TB) leukemia): 4.56 µM
TGI (HL-60(TB) leukemia): > 100 µM
GI50 (HOP-62 NSCLC): 10.5 µM
TGI (HOP-62 NSCLC): 26.9 µM
GI50 (HOP-92 NSCLC): 7.35 µM
TGI (HOP-92 NSCLC): 16.9 µM
GI50 (IGROV1 ovarian): 16 µM
TGI (IGROV1 ovarian): > 100 µM
GI50 (K-562 leukemia): 19.5 µM
TGI (K-562 leukemia): > 100 µM
GI50 (KM12 colon): 15.4 µM
TGI (KM12 colon): 33.2 µM
GI50 (LOX IMVI melanoma): 20.1 µM
TGI (LOX IMVI melanoma): 46.1 µM
GI50 (SF-295 CNS): 17.1 µM
TGI (SF-295 CNS): 37.1 µM

O=C(CC(=O)c1cccc2ccccc12)C(=O)NC1C2CC3CC(C2)CC1C3 (stereo not given)
TGI (A549 NSCLC): > 100 µM
TGI (HL-60(TB) leukemia): > 100 µM
TGI (HOP-62 NSCLC): > 100 µM
TGI (HOP-92 NSCLC): > 100 µM
TGI (IGROV1 ovarian): > 100 µM
TGI (K-562 leukemia): > 100 µM
TGI (KM12 colon): > 100 µM
TGI (LOX IMVI melanoma): > 100 µM
TGI (SF-295 CNS): > 100 µM

CCOC(=O)c1cc(-c2ccccc2)[nH]c1N/N=C/c1ccc(Cl)cc1
GI50 (A549 NSCLC): 81.5 µM
TGI (A549 NSCLC): > 100 µM
GI50 (HL-60(TB) leukemia): 29.5 µM
TGI (HL-60(TB) leukemia): 63.8 µM
GI50 (HOP-62 NSCLC): 87.3 µM
TGI (HOP-62 NSCLC): > 100 µM
GI50 (HOP-92 NSCLC): 46.9 µM
TGI (HOP-92 NSCLC): > 100 µM
GI50 (IGROV1 ovarian): 95.2 µM
TGI (IGROV1 ovarian): > 100 µM
GI50 (K-562 leukemia): 28.4 µM
TGI (K-562 leukemia): > 100 µM
GI50 (KM12 colon): > 100 µM
TGI (KM12 colon): > 100 µM
GI50 (LOX IMVI melanoma): 62.1 µM
TGI (LOX IMVI melanoma): > 100 µM
GI50 (SF-295 CNS): > 100 µM
TGI (SF-295 CNS): > 100 µM
